Here are results for seven compounds from paper PMC11062922 (Nature Chemical Biology, 2023).

One test addresses T1, CHECK1 (Homo sapiens, UniProt O14757).
T1 construct: endogenous in cells
T1 sequence (O14757 1-476): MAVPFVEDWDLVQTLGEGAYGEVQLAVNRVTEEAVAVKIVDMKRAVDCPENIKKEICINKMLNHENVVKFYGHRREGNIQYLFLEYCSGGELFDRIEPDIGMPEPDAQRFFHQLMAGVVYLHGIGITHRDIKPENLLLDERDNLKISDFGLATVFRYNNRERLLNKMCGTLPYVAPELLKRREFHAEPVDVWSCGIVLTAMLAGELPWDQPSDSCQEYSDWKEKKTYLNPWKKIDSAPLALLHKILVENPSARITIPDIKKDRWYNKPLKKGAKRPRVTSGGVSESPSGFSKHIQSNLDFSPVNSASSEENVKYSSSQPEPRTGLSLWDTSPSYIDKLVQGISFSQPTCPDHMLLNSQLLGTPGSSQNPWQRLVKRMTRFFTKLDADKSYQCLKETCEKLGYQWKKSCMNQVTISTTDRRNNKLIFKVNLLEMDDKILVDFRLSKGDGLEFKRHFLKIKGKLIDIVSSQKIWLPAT
The test is described as follows: Kinobeads two-dose competition binding: CHECK1. To be noted: for CATDS: target CHEK1. From the text: Briefly, Kinobeads comprise seven broad-spectrum small molecule kinase inhibitors immobilized on Sepharose beads. […]. Compounds of interest are set to compete for target protein binding with Kinobeads in the lysate and the amount of a given protein bound to Kinobeads in the presence of a compound can be quantified relative to a dimethylsulfoxide (DMSO) vehicle control by label-free mass spectrometry. This assay measures the physical interaction of a compound with thousands of endogenous proteins in parallel and, when systematically increasing the concentration of competitor, enables the calculation of an apparent interaction constant ( Kdapp ) for each compound and protein.
Kinobeads pulldown experiments were performed as described previously[13],[14],[17] with minor modification. […] The protein concentration was adjusted to 5 mg ml^−1. Kinase inhibitors were spiked into 0.5 ml of cell lysate at final concentrations of 100 and 1,000 nM (or DMSO, 0.3, 1, 3, 10, 30, 100, 300 and 1,000 nM for full dose experiments). […] Lysates were incubated for 45 min at 4 °C. Subsequently, lysates were incubated with Kinobeads ε (17.5 µl of settled beads) for 30 min at 4 °C. To assess the degree of protein depletion from the lysates by Kinobeads, the flow through of the DMSO control was recovered for a pulldown of pulldown experiment where the lysate was incubated a second time with fresh Kinobeads. Beads were washed in three steps with buffer containing 0.4%, 0.2% and no IGEPAL. Bound proteins were reduced with 50 mM DTT in 8 M Urea, 40 mM Tris-HCl pH 7.4 for 30 min at room temperature. After alkylation with 55 mM chloroacetamide, the urea concentration was reduced to 1–2 M and proteins were digested with trypsin. Acidified peptides were desalted and concentrated using SepPak tC18 µEluation plates (Waters). Samples were frozen, dried by vacuum centrifugation and stored at −20 °C.
Each kinase inhibitor was processed together with all DMSO controls of the same plate. Additionally, each search was supplemented with five high quality DMSO controls for consistent peptide identification and protein grouping. The resultant file (proteinGroups.txt) was used for subsequent filtering, normalization, data visualization and target annotation that was automatically performed by a data processing pipeline built in house that used R (including the ‘drc’ and ‘heatmap’ packages). First, reverse hits, potential contaminants and not quantified proteins in the DMSO control samples were discarded. Protein raw and label-free quantification intensities were normalized to the median DMSO control intensity to obtain relative residual binding intensities for each protein group at every inhibitor concentration and standard deviations of the DMSO control intensity were calculated. IC50 values were estimated based on the following equation IC50=I×100−inhibition/inhibition where [I] is the inhibitor concentration that was used for IC50 calculation and ‘inhibition’ the relative residual binding intensity. […]. Estimated Kdapp values were then calculated by multiplying the estimated IC50 values with a protein-dependent correction factor that was limited to a maximum value of one. The correction factor accounts for the depletion of a target protein from the lysate by Kinobeads. The depletion can be measured by the ratio of the amount of protein captured in two consecutive pulldowns of the same DMSO control lysate. In this study, correction factors were determined in separate experiments using the same lysate mixture and the same bead batch. Correction factors were set to the median of all correction factors. Targets of kinase inhibitors were annotated using the previously published random forest classifier. A training data set was annotated manually. […]

The next test concerns the target T2, MAP3K6 (Homo sapiens, UniProt O95382).
T2 construct: endogenous in cells
T2 sequence (O95382 1-1288): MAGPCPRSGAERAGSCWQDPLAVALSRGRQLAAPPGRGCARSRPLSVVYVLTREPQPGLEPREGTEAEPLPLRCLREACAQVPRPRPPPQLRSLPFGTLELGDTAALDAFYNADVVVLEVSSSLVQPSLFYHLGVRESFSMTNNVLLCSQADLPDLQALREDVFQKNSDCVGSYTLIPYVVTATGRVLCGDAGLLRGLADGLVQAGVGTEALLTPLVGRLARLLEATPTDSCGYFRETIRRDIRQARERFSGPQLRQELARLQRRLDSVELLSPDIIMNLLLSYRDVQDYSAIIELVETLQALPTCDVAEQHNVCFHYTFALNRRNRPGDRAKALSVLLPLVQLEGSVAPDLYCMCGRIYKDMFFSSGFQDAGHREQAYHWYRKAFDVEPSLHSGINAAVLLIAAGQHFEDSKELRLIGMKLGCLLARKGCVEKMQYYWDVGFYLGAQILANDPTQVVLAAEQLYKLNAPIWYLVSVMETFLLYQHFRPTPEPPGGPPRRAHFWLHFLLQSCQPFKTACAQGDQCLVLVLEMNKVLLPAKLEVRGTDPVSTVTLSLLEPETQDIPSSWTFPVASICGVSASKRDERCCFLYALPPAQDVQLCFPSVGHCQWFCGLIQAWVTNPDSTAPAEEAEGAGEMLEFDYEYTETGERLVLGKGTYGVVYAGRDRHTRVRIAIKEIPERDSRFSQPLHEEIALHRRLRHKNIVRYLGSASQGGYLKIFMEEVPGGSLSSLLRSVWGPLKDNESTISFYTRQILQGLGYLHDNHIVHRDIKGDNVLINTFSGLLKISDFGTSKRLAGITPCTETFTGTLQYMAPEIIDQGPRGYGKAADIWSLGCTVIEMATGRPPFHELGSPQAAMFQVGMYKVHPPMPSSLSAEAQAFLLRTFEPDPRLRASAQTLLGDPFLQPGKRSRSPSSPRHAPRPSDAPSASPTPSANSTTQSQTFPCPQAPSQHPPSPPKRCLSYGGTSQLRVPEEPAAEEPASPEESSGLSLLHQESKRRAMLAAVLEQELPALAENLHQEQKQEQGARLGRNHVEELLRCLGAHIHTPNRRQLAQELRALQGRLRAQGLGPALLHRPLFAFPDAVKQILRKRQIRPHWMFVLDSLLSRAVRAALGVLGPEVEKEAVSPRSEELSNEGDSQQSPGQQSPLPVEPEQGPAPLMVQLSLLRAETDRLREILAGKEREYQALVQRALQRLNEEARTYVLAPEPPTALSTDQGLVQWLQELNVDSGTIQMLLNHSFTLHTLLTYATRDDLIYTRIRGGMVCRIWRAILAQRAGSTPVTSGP
Nature of the test: Kinobeads two-dose competition binding: MAP3K6. The note with it: for CATDS: target MAP3K6.

In the case of `Nc1ncnc2[nH]c(-c3ccccc3)nc12` [AH5015_KCGS], the CATDS at CHECK1 and on MAP3K6 was 0 throughout.

`C[C@]12O[C@H](C[C@]1(O)CO)n1c3ccccc3c3c4c(c5c6ccccc6n2c5c31)CNC4=O` [Lestaurtinib]: the potency estimated from few doses at CHECK1 (read-out: Lestaurtinib Drugmatrix value, Gene Name CHEK1) was 0.098 µM.

In the case of `CCc1cc2c(cc1N1CCC(N3CCOCC3)CC1)C(C)(C)c1[nH]c3cc(C#N)ccc3c1C2=O` [Alectinib], the CATDS at CHECK1 and on MAP3K6 was 0 each time.

As to `N#CC1(c2ccc(NC(=O)c3cccnc3NCc3ccncc3)cc2)CCCC1` [Apatinib], the CATDS at CHECK1 and on MAP3K6 was 0 throughout.

As for `CCN1CCN(Cc2ccc(Nc3ncc(F)c(-c4cc(F)c5nc(C)n(C(C)C)c5c4)n3)nc2)CC1` [Abemaciclib], the CATDS at CHECK1 and at MAP3K6 was 0 each time.

With `CN(C)C/C=C/C(=O)Nc1cc2c(Nc3ccc(F)c(Cl)c3)ncnc2cc1O[C@H]1CCOC1` [Afatinib], the CATDS at CHECK1 and on MAP3K6 was 0 each time.

For the compound `CC(C)N1CC(=O)N(C)c2cnc(Nc3cccc(S(=O)(=O)CCN4CCOCC4)c3)nc21` [BI00009348], the potency estimated from few doses on MAP3K6 (Kinobeads two-dose, Drugmatrix - all 2, read-out: apparent Kd MAP3K6) was 0.698 µM.
